Data on eight molecules can be found in publication PMC12557367, ““Precision on Two Wheels”–Structural Refinement of ^64Cu- and ^68Ga-Labeled Bicyclic Peptides Targeting Nectin‑4 for Improved Tumor Imaging: From Preclinical Development to First-in-Human Application” (Journal of Medicinal Chemistry, 2025).

Data set [1] has as its target T1, recombinant human nectin-4 (Homo sapiens, UniProt Q96NY8).
T1 construct: close to the value determined for the complete extracellular domain of nectin-4 (0.94 nM); purchased R&D Systems 2659-N4
T1 sequence (Q96NY8 32-349 limits assumed): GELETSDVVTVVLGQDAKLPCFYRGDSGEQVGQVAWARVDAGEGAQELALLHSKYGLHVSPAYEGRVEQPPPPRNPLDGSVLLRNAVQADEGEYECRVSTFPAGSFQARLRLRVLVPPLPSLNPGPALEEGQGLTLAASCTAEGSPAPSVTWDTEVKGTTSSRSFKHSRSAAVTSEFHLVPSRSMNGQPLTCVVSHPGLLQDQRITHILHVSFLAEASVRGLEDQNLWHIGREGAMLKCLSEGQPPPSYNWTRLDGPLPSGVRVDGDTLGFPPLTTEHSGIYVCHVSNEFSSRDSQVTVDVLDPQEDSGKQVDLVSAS
In words: FA-based competitive binding assay with probe 1a. Particulars: for Hill coefficient n: competitive binding curve, variable slope; for fold lower binding affinity compared to 1e: FA K d ratio. How it is done: For the competitive binding assay, a constant concentration of probe 1a (1 nM) and of nectin-4 (20 nM) was used, and the concentration of the competitors was varied over at least 3 orders of magnitude. […] Analysis of the curves by nonlinear regression according to dose–response inhibition with variable slope, as implemented in GraphPad Prism (see Experimental section), provided the IC50 value for displacing the probe from nectin-4.
All measurements were conducted at 37 °C over 1200 s (interval of 37 s) using a Cytation 5 multimode microplate reader (BioTek Instruments, Software Gen 5) and black 96-well microplates (BRANDplates with F-bottom wells). Experiments were conducted at an excitation wavelength of 540 nm and an emission wavelength of 620 nm. The FA (r) was calculated by Gen 5 software from the measured parallel and perpendicular fluorescence intensities (I ∥ and I ⊥, respectively) according to eq using a G factor of 0.87 (preset value). r=I∥−G×I⊥/I∥+2G×I⊥ 1
All further data analyses were conducted with GraphPad Prism (version 10.4.1, GraphPad Software, San Diego, CA, USA). The assay mixture (100 μL) contained an aqueous solution (99 μL) and DMSO (1%, v/v, 1 μL).
For the competitive binding assay, fixed concentrations of probe 1a (1 nM) and recombinant human nectin-4 (20 nM) and 10 concentrations of nonlabeled peptide (e.g., […] prepared as serial 1:1 dilution) were used (two separate experiments, each performed in duplicate). The corresponding stock solutions of 1a (2.5 nM) and nectin-4 (50 nM) were prepared in HEPES buffer, while the stock solutions of the nonlabeled peptides were prepared in 5% DMSO/HEPES buffer. nectin-4 (40 μL) and 1a (40 μL) were added to the wells, and the competition was started by the addition of the nonlabeled peptides (20 μL). The FA values were averaged over the time period of 1200 s, and plots of FA = f([peptide]) were analyzed by nonlinear regression according to the model “[inhibitor] vs. response – Variable slope (four parameters)” as implemented in GraphPad Prism. […] Therefore, the lower FA plateau was constrained to the FA value of probe 1a in the absence of nectin-4 and the competitor, which was recorded in each experiment.

Data set [2] addresses T2, immobilized human nectin-4 (Homo sapiens, UniProt Q96NY8).
T2 construct: close to the value determined for the complete extracellular domain of nectin-4 (0.94 nM); purchased R&D Systems 2659-N4
T2 sequence (Q96NY8 32-349 limits assumed): T1 sequence (Q96NY8 32-349 limits assumed)
In words: SPR analysis of binding kinetics. Particulars: for kon / koff: ±SEM; for kon: read-out: k on (SPR, *10^6 M^–1 s^–1); for koff: pH 7.4, HBS-P+ pH 7.4, 25 °C, read-out: k off (SPR, *10^–3 s^–1).
Procedure: For this purpose, recombinant human nectin-4 was covalently immobilized on a CM5 sensor chip by EDC/NHS coupling. For analyses, the buffer composition (HBS-P+, pH 7.4) was similar to that of the FA assay; however, DMSO was completely omitted (1% DMSO for the FA assay).
The SPR analyses were carried out on a Biacore T200 (GE Healthcare, Chicago, IL, USA) at 25 °C using CM5 sensor chips (Cytiva) and HBS-P+ as running buffer (Cytiva) at a flow of 30 μL/min unless otherwise specified and a data collection rate of 10 Hz. All flow cells (FC) were normalized, and functionalization was performed using an amine coupling Kit (Cytiva). […] Binding analyses were performed by a single-cycle kinetic on both FC. Two start-up cycles were performed at the beginning of each experimental set, comprising the injection of bicyclic peptide (50 nM) and analysis on both FC, followed by regeneration. Binding analysis for the bicyclic peptides was performed by consecutive injection of five increasing concentrations (120 s contact time for each concentration), followed by 600 s dissociation time and analysis on both FC. The regeneration was performed by sequential injection of 10 mM NaOAc (pH 5.5) for 60 s, washing the needle using HBS-P+, injection of 10 mM NaOAc (pH 5.5) for 60 s, 600 s waiting, four injections of HBS-P+ (60 s), and a final 600 s waiting for stabilization. Blank runs using only buffer (HBS-P+) instead of the sample were carried out to obtain double-referenced chromatograms. Binding analyses were performed unless otherwise stated in a concentration range between 0.16–100 nM and 1.6–1000 nM (5-fold dilution series) and analyzed in triplicate. The data were analyzed using the Biacore Evaluation software 3.2.1. […] Data were fitted to a 1:1 binding model.

In data set [3] the test system is HT-1376-derived tumor xenograft model. In words: Small animal PET/CT imaging. Details: species or system mice. Particulars: mouse, in vivo. How it is done:
All animal experiments were performed following the protocols evaluated and approved by the Landesdirektion Sachsen, Referat 25 – Veterinärwesen, Lebensmittelüberwachung and Pharmazie (09105 Chemnitz, Germany, ethics approval number: 25-5131/562/52). HT-1376- and 5637-derived tumor xenograft models were established in NMRI nude mice (Rj: NMRI-Foxn1nu/nu, Charles River Laboratories, Sulzfeld, Germany) by subcutaneous injection of 5 × 10^6 cells in 100 μL of PBS containing 50% (v/v) Matrigel (Corning Life Sciences, Amsterdam, The Netherlands).
When the tumor volume reached 200 mm^3, PET experiments with radiotracers were performed. Radiolabeling of the ligands was performed as described previously with an apparent molar activity of 25 MBq/nmol. The radioligand stock solution (pH 6.5 – 7.5) was diluted in 0.9% NaCl, and 200 μL containing ∼9 MBq ([…]) was injected per mouse intravenously into a lateral tail vein. For blocking of target-specific radioligand binding, 75 nmol of blocking substance (1d) was administered simultaneously with the radioligand. Coincidences were recorded continuously in a 2 h PET-scan starting with the injection. Additionally, a CT scan was performed for anatomical referencing and attenuation correction. PET/CT imaging, reconstruction, and tissue delineation were carried out as described previously.

Molecules are shown by their SMILES. Numbered stars: 1 amine (or outer) side, 2 acyl side, 3 side chain; on linkers, the order of the positions; unused ones are H or OH. Bridge positions count the residues as written; N and C are the ends. Square brackets hold non-standard residues; d marks the D form. Peptide text beside a SMILES is read from it. * marks the point of attachment. TATA = O=C(CC[*:1])N1CN(C(=O)CC[*:2])CN(C(=O)CC[*:3])C1; X1 = O=C(O)CN1CCN(CC(=O)O)CCN([C@H](CCC(=O)*)C(=O)O)CC1; 1Nal = N[C@@H](Cc1cccc2ccccc12)C(=O)O; Hyp = O=C(O)[C@@H]1C[C@@H](O)CN1; hArg = N=C(N)NCCCC[C@H](N)C(=O)O; hSer = N[C@@H](CCO)C(=O)O; Nle = CCCC[C@H](N)C(=O)O

With `CSCC[C@@H]1NC(=O)[C@@H]2CSCCC(=O)N3CN(CN(C3)C(=O)CCSC[C@H](NC(C)=O)C(=O)N3CCC[C@H]3C(=O)N[C@@H](Cc3cccc4ccccc34)C(=O)N[C@H](CC(=O)O)C(=O)N2)C(=O)CCSC[C@@H](C(N)=O)NC(=O)[C@H](Cc2c[nH]c3ccccc23)NC(=O)[C@@H]2C[C@@H](O)CN2C(=O)[C@@H]2CCCN2C(=O)[C@H]([C@@H](C)O)NC(=O)[C@H](CO)NC(=O)[C@H](Cc2c[nH]c3ccccc23)NC(=O)[C@H](CC(=O)O)NC(=O)[C@H](CCCCNC(=N)N)NC1=O` [1d, reference compound], in data set [1], the Hill coefficient n turned out to be 2.37.

As for `CCOC[C@@H]1NC(=O)[C@@H]2CSCCC(=O)N3CN(CN(C3)C(=O)CCSC[C@H](NC(=O)CC[C@H](C(=O)O)N3CCN(CC(=O)O)CCN(CC(=O)O)CC3)C(=O)N3CCC[C@H]3C(=O)N[C@@H](Cc3cccc4ccccc34)C(=O)N[C@H](CC(=O)O)C(=O)N2)C(=O)CCSC[C@@H](C(N)=O)NC(=O)[C@H](Cc2c[nH]c3ccccc23)NC(=O)[C@@H]2C[C@@H](O)CN2C(=O)[C@@H]2CCCN2C(=O)[C@H]([C@@H](C)O)NC(=O)[C@H](CO)NC(=O)[C@H](Cc2c[nH]c3ccccc23)NC(=O)[C@H](CC(=O)O)NC(=O)[C@H](CCCCNC(=N)N)NC1=O` [compound 6] (X1-CP[1Nal][dD]CS(Et)[hArg]DWSTP[Hyp]WC-NH2; linker 1-5-15 via TATA), in data set [1], the “fold lower binding affinity compared to 1e” value is on record as “approximately 10 fold” and the Hill coefficient n was 1.42. In addition, in data set [2] (HBS-P+ pH 7.4, 25 °C), the kon worked out at 3.86e+06 M⁻¹ s⁻¹. The koff in data set [2] worked out at 0.0247 s⁻¹.

For `CCCC[C@@H]1NC(=O)[C@@H]2CSCCC(=O)N3CN(CN(C3)C(=O)CCSC[C@H](NC(C)=O)C(=O)N3CCC[C@H]3C(=O)N[C@@H](Cc3cccc4ccccc34)C(=O)N[C@H](CC(=O)O)C(=O)N2)C(=O)CCSC[C@@H](C(N)=O)NC(=O)[C@H](Cc2c[nH]c3ccccc23)NC(=O)[C@@H]2C[C@@H](O)CN2C(=O)[C@@H]2CCCN2C(=O)[C@H]([C@@H](C)O)NC(=O)[C@H](CO)NC(=O)[C@H](Cc2c[nH]c3ccccc23)NC(=O)[C@H](CC(=O)O)NC(=O)[C@H](CCCCNC(=N)N)NC1=O` [3b] (Ac-CP[1Nal][dD]C[Nle][hArg]DWSTP[Hyp]WC-NH2; linker 1-5-15 via TATA), the Hill coefficient n in data set [1] is on record as 1.80.

Turning to `COCC[C@@H]1NC(=O)[C@@H]2CSCCC(=O)N3CN(CN(C3)C(=O)CCSC[C@H](NC(=O)CC[C@H](C(=O)O)N3CCN(CC(=O)O)CCN(CC(=O)O)CC3)C(=O)N3CCC[C@H]3C(=O)N[C@@H](Cc3cccc4ccccc34)C(=O)N[C@H](CC(=O)O)C(=O)N2)C(=O)CCSC[C@@H](C(N)=O)NC(=O)[C@H](Cc2c[nH]c3ccccc23)NC(=O)[C@@H]2C[C@@H](O)CN2C(=O)[C@@H]2CCCN2C(=O)[C@H]([C@@H](C)O)NC(=O)[C@H](CO)NC(=O)[C@H](Cc2c[nH]c3ccccc23)NC(=O)[C@H](CC(=O)O)NC(=O)[C@H](CCCCNC(=N)N)NC1=O` [[^68Ga]Ga-4] [metal not drawn] (X1-CP[1Nal][dD]C[hSer](Me)[hArg]DWSTP[Hyp]WC-NH2; linker 1-5-15 via TATA), in data set [3], the “Percent fast [%]” value is 78.47 ±3.76% and the “time of highest tumor uptake” value turned out to be 8.5 min.

Turning to `CSCC[C@@H]1NC(=O)[C@@H]2CSCCC(=O)N3CN(CN(C3)C(=O)CCSC[C@H](N)C(=O)N3CCC[C@H]3C(=O)N[C@@H](Cc3cccc4ccccc34)C(=O)N[C@H](CC(=O)O)C(=O)N2)C(=O)CCSC[C@@H](C(N)=O)NC(=O)[C@H](Cc2c[nH]c3ccccc23)NC(=O)[C@@H]2C[C@@H](O)CN2C(=O)[C@@H]2CCCN2C(=O)[C@H]([C@@H](C)O)NC(=O)[C@H](CO)NC(=O)[C@H](Cc2c[nH]c3ccccc23)NC(=O)[C@H](CC(=O)O)NC(=O)[C@H](CCCCNC(=N)N)NC1=O` [1c], in data set [1], the Hill coefficient n is on record as 2.12.

With `CSCC[C@@H]1NC(=O)[C@@H]2CSCCC(=O)N3CN(CN(C3)C(=O)CCSC[C@H](NC(=O)CC[C@H](C(=O)O)N3CCN(CC(=O)O)CCN(CC(=O)O)CC3)C(=O)N3CCC[C@H]3C(=O)N[C@@H](Cc3cccc4ccccc34)C(=O)N[C@H](CC(=O)O)C(=O)N2)C(=O)CCSC[C@@H](C(N)=O)NC(=O)[C@H](Cc2c[nH]c3ccccc23)NC(=O)[C@@H]2C[C@@H](O)CN2C(=O)[C@@H]2CCCN2C(=O)[C@H]([C@@H](C)O)NC(=O)[C@H](CO)NC(=O)[C@H](Cc2c[nH]c3ccccc23)NC(=O)[C@H](CC(=O)O)NC(=O)[C@H](CCCCNC(=N)N)NC1=O` [natGa-1e, metal not drawn], in data set [2] (HBS-P+ pH 7.4, 25 °C), the kon is 1.1e+06 M⁻¹ s⁻¹. Besides, the koff in data set [2] amounted to 0.0026 s⁻¹.

As to `CSCC[C@@H]1NC(=O)[C@@H]2CSCCC(=O)N3CN(CN(C3)C(=O)CCSC[C@H](NC(=O)CN3CCN(CC(=O)O)CCN(CC(=O)O)CCN(CC(=O)O)CC3)C(=O)N3CCC[C@H]3C(=O)N[C@@H](Cc3cccc4ccccc34)C(=O)N[C@H](CC(=O)O)C(=O)N2)C(=O)CCSCC(C(N)=O)NC(=O)[C@H](Cc2c[nH]c3ccccc23)NC(=O)[C@@H]2C[C@@H](O)CN2C(=O)[C@@H]2CCCN2C(=O)[C@H]([C@@H](C)O)NC(=O)[C@H](CO)NC(=O)[C@H](Cc2c[nH]c3ccccc23)NC(=O)[C@H](CC(=O)O)NC(=O)[C@H](CCCCNC(=N)N)NC1=O` (stereo partly drawn) [1f], in data set [1], the “fold lower binding affinity compared to 1e” value is 10 fold and the Hill coefficient n is given as 1.18. For the same molecule, in data set [2] (HBS-P+ pH 7.4, 25 °C, single-cycle kinetics, 1:1 model, read-out: K d (SPR)), the Kd is 1.31 nM. The kon in data set [2] (HBS-P+ pH 7.4, 25 °C) worked out at 8.76e+06 M⁻¹ s⁻¹. In data set [2], the koff came out at 0.0115 s⁻¹.

As for `CSCC[C@@H]1NC(=O)[C@@H]2CSCCC(=O)N3CN(CN(C3)C(=O)CCSC[C@H](NC(=O)CC[C@H](C(=O)O)N3CCN(CC(=O)O)CCN(CC(=O)O)CC3)C(=O)N3CCC[C@H]3C(=O)N[C@@H](Cc3cccc4ccccc34)C(=O)N[C@H](CC(=O)O)C(=O)N2)C(=O)CCSC[C@@H](C(N)=O)NC(=O)[C@H](Cc2c[nH]c3ccccc23)NC(=O)[C@@H]2C[C@@H](O)CN2C(=O)[C@@H]2CCCN2C(=O)[C@H]([C@@H](C)O)NC(=O)[C@H](CO)NC(=O)[C@H](Cc2c[nH]c3ccccc23)NC(=O)[C@H](CC(=O)O)NC(=O)[C@H](CCCCNC(=N)N)NC1=O` [[^68Ga]Ga-1e] [metal not drawn], in data set [3], the “Blood half life fast” value is 1.51 ± 0.31 min, the “Blood half life slow” value is 42.24 ± 4.20 min, the “Percent fast [%]” value is reported as 80.73 ±3.35% and the “body retention at 2 h p.i.” value came out at 65%. Moreover, the “time of highest tumor uptake” value in data set [3] stood at 8.5 min.
